Calls of active or inactive are those of the source. The rule behind the calls is not given here.

Assay [1] concerns the target T1, DNA (cytosine-5)-methyltransferase 3A (Homo sapiens, UniProt Q9Y6K1). Description: Binding affinity to human DNMT3A catalytic domain assessed as inhibition of enzyme-mediated DNA methylation using 3H-AdoMet as substrate incubated for 30 mins.
For assay [2], the target named is T1, DNA (cytosine-5)-methyltransferase 3A. Description: Binding affinity to human DNMT3A catalytic domain assessed as inhibition of enzyme-mediated DNA methylation using poly dl-dC as substrate incubated for 30 mins.
Assay [3] shares this target. Description: Mixed type inhibition of human DNMT3A using AdoMet as substrate.
Assay [4] shares this target. Description: Mixed type inhibition of human DNMT3A using poly dl-dC as substrate.
The nature of assay [5]: Inhibition of bacterial DNA cytosine methyltransferase M.SssI up to 60 uM preincubated for 15 mins followed by DNA addition measured after 30 mins relative to control. The conditions noted are these: dose microM <=60, time 15.0 min.
Assay [6] deals with DNA (cytosine-5)-methyltransferase 1 (Homo sapiens) (UniProt P26358). Description: Inhibition of DNMT1 (unknown origin) up to 6 uM preincubated for 15 mins followed by DNA addition measured after 30 mins relative to control. The settings on record: dose microM <=6, time 15.0 min.
In assay [7] the target is T1, DNA (cytosine-5)-methyltransferase 3A. Description: Inhibition of human DNMT3A (628 to 912 residues) preincubated for 15 mins followed by DNA addition measured after 30 mins relative to control.
The target is the same in assay [8]. Description: Uncompetitive inhibition of human DNMT3A using AdoMet as substrate.
Assay [9] shares this target. Description: Uncompetitive inhibition of human DNMT3A using poly dl-dC as substrate.

T1 sequence (Q9Y6K1 whole entry, looked up, the tested form may be a part): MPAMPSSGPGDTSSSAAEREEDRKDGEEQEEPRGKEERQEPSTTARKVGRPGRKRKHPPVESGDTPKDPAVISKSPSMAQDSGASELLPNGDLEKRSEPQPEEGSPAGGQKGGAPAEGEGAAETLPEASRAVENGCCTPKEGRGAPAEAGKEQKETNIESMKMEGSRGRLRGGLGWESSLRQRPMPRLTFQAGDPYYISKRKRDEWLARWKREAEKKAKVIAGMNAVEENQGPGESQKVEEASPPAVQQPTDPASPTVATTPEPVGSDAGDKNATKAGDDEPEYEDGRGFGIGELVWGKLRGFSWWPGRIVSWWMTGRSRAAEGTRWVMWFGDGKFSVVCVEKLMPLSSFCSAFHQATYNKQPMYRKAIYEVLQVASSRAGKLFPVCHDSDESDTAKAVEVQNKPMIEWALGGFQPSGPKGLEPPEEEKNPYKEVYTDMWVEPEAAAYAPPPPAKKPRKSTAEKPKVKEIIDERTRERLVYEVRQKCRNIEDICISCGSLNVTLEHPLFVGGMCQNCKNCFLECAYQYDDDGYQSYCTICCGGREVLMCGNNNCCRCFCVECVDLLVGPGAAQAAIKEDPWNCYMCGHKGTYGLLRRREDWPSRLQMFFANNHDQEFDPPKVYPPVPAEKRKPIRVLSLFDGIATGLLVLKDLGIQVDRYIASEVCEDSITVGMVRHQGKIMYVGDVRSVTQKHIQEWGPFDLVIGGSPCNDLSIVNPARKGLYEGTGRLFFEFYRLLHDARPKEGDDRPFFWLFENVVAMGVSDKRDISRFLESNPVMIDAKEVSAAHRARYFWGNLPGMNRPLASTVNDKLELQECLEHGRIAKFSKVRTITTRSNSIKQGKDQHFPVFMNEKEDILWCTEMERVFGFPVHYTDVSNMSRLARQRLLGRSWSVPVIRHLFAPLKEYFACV
DNA (cytosine-5)-methyltransferase 1 (Homo sapiens), sequence (P26358 whole entry, the tested form may be a part): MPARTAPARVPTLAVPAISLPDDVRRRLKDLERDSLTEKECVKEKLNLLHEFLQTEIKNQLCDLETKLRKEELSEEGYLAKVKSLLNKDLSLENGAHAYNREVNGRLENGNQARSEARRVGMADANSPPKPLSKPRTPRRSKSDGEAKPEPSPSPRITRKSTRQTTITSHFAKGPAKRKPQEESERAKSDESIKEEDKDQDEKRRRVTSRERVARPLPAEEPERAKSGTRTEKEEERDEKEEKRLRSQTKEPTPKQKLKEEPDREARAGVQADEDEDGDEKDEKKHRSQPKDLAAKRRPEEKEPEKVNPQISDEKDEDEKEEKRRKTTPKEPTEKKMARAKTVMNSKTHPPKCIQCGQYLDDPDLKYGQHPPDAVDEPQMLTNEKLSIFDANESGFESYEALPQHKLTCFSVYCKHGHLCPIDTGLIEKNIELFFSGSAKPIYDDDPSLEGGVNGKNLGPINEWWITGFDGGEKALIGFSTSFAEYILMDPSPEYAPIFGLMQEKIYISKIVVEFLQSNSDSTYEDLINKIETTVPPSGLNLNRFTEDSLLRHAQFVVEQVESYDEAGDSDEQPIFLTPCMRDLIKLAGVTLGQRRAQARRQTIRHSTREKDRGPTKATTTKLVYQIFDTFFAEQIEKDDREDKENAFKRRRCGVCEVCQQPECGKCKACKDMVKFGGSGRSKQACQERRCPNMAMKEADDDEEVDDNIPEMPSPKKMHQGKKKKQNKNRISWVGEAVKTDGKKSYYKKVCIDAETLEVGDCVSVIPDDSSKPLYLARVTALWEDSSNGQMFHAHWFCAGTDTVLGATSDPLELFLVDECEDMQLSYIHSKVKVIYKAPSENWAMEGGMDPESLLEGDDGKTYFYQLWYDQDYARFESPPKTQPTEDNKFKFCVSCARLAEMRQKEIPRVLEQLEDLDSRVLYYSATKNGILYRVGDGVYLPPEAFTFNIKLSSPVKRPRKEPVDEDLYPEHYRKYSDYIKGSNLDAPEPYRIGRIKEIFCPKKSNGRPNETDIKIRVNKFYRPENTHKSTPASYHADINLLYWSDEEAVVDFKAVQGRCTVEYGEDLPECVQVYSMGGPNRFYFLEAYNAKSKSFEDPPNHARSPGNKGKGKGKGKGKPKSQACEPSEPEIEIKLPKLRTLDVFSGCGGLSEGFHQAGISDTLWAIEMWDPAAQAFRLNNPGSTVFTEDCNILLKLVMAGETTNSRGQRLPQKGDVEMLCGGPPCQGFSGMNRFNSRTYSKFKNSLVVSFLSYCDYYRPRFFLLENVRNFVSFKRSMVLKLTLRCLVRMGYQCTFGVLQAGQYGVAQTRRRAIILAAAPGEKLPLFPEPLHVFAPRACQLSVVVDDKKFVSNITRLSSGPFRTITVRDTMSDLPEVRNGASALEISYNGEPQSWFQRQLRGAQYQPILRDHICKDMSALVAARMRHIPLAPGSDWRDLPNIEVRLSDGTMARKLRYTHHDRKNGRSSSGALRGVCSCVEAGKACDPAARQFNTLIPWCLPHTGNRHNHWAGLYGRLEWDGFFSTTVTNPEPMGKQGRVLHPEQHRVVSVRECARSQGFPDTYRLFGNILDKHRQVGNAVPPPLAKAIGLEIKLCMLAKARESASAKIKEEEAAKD

Broadly, the Ki is the dissociation constant of the complex between target and ligand, obtained from inhibition or displacement. For `COc1ccc(C2=NN(C3CCCCCC3)C(=O)C2(C)C)cc1OCCCCOc1ccc(-c2nnn[nH]2)cc1`, the Ki came out at 5.03 µM in assay [1], 21.6 µM in [2], 3.7 µM in [3] and 12.6 µM in assay [4].

On to `COc1ccc(C2=NN(C3CCCCCC3)C(=O)[C@@H]3CC=CC[C@H]23)cc1OCCCCOc1ccc(-c2nnn[nH]2)cc1`, for which the Ki in assay [1] turned out to be 13.8 µM; in assay [2], 16.1 µM; in [8], 9.16 µM; in [9], 11.4 µM. Besides, the inhibition entry in assay [5] was “inactive”. Moreover, the inhibition result in [6] and in assay [7] was “Active” in each case.

With `COc1ccc(C2=NN(C3CCCCCC3)C(=O)C2(C)C)cc1OCCCCOc1ccc(-c2nn[nH]n2)cc1`, the inhibition entry in [5] was “inactive”. Moreover, the inhibition entry in assay [6] and in assay [7] was “Active” throughout.
